ChEMBL document CHEMBL1129862, “2,3-Substituted 2-azanorbornanes as polar -turn mimetics” (Bioorg Med Chem Lett, 1997)
Where a SMILES comes first, the peptide text is derived from it. Bridges are numbered along the chain shown (N, C = ends). [ ]: non-standard residue; d: D form. Dap = NC[C@H](N)C(=O)O

Key:
[1] = target: T1, Substance-K receptor (Mesocricetus auratus) (UniProt P51144); experiment: Inhibition by the compound against [125I]NKA binding to neurokinin-2 (NK-2) receptor in hamster urinary bladder at 10 uM concentration
T1 sequence (whole entry): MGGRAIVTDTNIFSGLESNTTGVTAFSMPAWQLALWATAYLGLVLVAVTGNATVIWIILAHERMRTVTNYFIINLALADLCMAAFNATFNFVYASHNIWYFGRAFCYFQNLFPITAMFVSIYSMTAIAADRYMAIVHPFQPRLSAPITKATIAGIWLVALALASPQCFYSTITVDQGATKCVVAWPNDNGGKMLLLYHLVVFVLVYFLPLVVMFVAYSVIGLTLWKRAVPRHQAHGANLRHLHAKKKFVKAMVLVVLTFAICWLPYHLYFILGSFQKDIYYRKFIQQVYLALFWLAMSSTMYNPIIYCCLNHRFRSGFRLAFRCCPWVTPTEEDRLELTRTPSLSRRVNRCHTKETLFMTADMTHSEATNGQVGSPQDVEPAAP

[2] = target: T2, Substance-P receptor (Homo sapiens, UniProt P25103); experiment: Tested for binding affinity against [125I]BH-SP binding to neurokinin-1 (NK-1) receptor in human IM-9 cells; format: cell-based
[3] = target: T2, Substance-P receptor; experiment: Inhibition by the compound against [125I]BH-SP radioligand binding to neurokinin-1 (NK-1) receptor in human IM-9 cells at 10 uM concentration; format: cell-based
[4] = target: T3, Neuromedin-K receptor (Homo sapiens, UniProt P29371); experiment: Tested for binding affinity of compound against [125I][MePhe]-NKB binding to Tachykinin receptor 3 in stably expressed CHO cells; format: cell-based
T3 sequence (P29371 whole entry): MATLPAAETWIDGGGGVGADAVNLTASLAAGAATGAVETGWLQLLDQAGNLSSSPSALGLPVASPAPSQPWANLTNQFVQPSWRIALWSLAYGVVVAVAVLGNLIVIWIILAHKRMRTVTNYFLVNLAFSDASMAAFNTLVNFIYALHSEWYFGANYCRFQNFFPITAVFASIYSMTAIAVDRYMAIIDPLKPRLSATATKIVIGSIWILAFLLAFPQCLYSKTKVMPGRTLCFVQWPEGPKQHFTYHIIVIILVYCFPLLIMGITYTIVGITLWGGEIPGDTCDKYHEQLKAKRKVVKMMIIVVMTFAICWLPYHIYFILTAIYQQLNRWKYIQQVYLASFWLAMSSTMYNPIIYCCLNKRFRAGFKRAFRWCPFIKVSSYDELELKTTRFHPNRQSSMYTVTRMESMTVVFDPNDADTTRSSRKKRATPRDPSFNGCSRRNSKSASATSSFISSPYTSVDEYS

[5] = target: T4, Neuromedin-K receptor (Homo sapiens) (UniProt P29371); experiment: Inhibition by the compound against [125I]-[MePhe]-NKB binding to human Tachykinin receptor 3 in stably expressed CHO cells at 10 uM concentration; format: cell-based
T4 sequence (whole entry): T3 sequence (P29371 whole entry)

[6] = target: T3, Neuromedin-K receptor; experiment: Tested for binding affinity of compound against [125I][MePhe]-NKB binding to human Tachykinin receptor 3 in stably expressed CHO cells; Inactive; format: cell-based
[7] = target: T5, Substance-K receptor (Mesocricetus auratus, UniProt P51144); experiment: Tested for binding affinity of compound against [125I]NKA binding to neurokinin-2 (NK-2) receptor in hamster urinary bladder
T5 sequence (P51144 whole entry): T1 sequence (whole entry)

T2 sequence (P25103 whole entry): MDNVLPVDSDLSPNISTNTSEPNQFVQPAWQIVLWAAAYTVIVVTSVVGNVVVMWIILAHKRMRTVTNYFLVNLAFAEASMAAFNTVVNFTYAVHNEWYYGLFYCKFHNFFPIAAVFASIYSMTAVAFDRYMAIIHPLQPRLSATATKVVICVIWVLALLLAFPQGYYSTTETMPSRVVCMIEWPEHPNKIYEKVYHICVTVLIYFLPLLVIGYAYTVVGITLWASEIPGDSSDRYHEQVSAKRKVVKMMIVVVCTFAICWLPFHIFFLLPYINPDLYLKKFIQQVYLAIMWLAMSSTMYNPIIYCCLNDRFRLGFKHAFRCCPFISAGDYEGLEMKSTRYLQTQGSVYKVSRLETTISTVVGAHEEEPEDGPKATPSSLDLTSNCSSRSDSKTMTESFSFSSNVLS

| inhibition [1] [%] | IC50 [2] [µM] | inhibition [3] [%] | IC50 [4] [µM] | inhibition [5] [%] | IC50 [6] | IC50 [7] [pM] | Structure (SMILES) |
| --- | --- | --- | --- | --- | --- | --- | --- |
| 14 | 3.7 | – | – | – | – | – | O=C(Cc1c[nH]c2ccccc12)N1CCC(Cc2ccccc2)C1 (stereo unspecified) |
| 18 | – | 55 | 10 | – | – | – | O=C(NCc1cn(C(=O)OCc2ccccc2)c2ccccc12)N1C2CCC(C2)C1Cc1ccccc1 (stereo unspecified) |
| 31 | 6.7 | – | – | 35 | – | – | O=C(NCc1c[nH]c2ccccc12)N1C2CCC(C2)C1Cc1ccccc1 (stereo unspecified) |
| – | 0.8 | – | – | – | Not Active | 79 | CSCC[C@@H]1NC(=O)[C@H](CC(C)C)NC(=O)[C@@H]2CNC(=O)C[C@H](NC1=O)C(=O)N[C@@H](Cc1c[nH]c3ccccc13)C(=O)N[C@@H](Cc1ccccc1)C(=O)N2 (cyclo(DWF[Dap]LM); lactam 1-4) |
